Results on 14 compounds are retold here after patent US20090215758A1, “Use of 2,5-Disubstituted Thiazol-4-One Derivatives in Drugs” (Gruenenthal GmbH, priority 2005, published 2009).

Usually inhibition stands for the relative decrease from the control value, in per cent. As a reminder, the pEC50 is the EC50 on a negative log10 scale, so that one unit is a factor of ten. A higher pEC50 goes with a small EC50.

pEC50: −log10 of the molar value.

One assay deals with T1, VR1 (human) (Homo sapiens, UniProt Q8NER1).
T1 construct: expressed in transfected cells; host or cells: CHO K1 cells (ECACC), stably transfected
T1 sequence (Q8NER1 whole entry): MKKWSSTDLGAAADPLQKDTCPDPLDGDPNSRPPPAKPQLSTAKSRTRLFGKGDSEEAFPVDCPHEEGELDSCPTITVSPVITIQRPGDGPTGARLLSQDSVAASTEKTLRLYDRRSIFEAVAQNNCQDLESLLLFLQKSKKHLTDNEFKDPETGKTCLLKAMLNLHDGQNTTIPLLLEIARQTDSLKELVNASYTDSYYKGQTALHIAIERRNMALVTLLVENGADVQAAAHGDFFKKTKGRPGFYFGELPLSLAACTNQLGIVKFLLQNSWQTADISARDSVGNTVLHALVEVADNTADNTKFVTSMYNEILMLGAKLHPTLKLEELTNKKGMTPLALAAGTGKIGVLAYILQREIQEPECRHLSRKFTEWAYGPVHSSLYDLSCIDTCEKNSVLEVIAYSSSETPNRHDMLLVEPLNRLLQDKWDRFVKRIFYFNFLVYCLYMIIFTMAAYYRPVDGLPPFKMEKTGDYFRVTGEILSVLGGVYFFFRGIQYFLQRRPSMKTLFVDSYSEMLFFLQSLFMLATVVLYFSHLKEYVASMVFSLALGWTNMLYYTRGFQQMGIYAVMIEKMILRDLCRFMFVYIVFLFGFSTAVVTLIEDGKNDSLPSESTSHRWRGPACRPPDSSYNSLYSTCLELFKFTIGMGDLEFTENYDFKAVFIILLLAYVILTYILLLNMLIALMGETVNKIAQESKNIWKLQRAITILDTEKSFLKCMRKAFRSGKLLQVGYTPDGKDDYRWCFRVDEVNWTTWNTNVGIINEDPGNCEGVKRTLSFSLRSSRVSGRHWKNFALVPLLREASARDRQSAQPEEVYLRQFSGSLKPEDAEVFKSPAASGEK
In words: Functional study on vanilloid receptor (VR1), FLIPR Ca2+ assay in CHO K1 cells stably transfected with the VR1 gene. The assay is classed as cell-based. The note with it: for VR1 (human) (% inhibition compared to 10 μM CP) / VR1 (human) (% stimulation compared to 10 μM CP): test compound 10 μM; for VR1 (human) (% inhibition compared to 10 μM CP) / inhibition at 10 µM: 5 min incubation, then 100 nM capsaicin, compared to 10 μM CP; for VR1 (human) (% stimulation compared to 10 μM CP) / activation at 10 µM: Ca2+ signal relative to 10 μM capsaicin (CP); for inhibition at 10 µM / activation at 10 µM: CHO-K1, test compound 10 μM; for activation at 10 µM: read-out: VR1 (human) (% stimulation compared to 10 μM CP). From the text:
The agonistic or antagonistic action of the substances to be tested on vanilloid receptor (VR1) can also be determined with the assay which follows. In this assay, the Ca^2+ current through the channel is quantified with the aid of a Ca^2+-sensitive dye (Fluo-4 type, Molecular Probes, Europe BV, Leiden, the Netherlands) in a fluorescent imaging plate reader (FLIPR, Molecular Devices, Sunnyvale, USA).
Chinese hamster ovary cells (CHO K1 cells, European Collection of Cell Cultures (ECACC) Great Britain) are transfected stably with the VR1 gene. For functional studies, these cells are plated out onto poly-D-lysine-coated black 96-well plates with a clear bottom (BD Biosciences, Heidelberg, Germany) in a density of 25 000 cells/well. The cells are incubated overnight at 37° C. and 5% CO2 in a culture medium (Ham's Nutrient Mixture F12, 10% by volume of FCS (fetal calf serum), 18 μg/ml of L-proline). The next day, the cells are incubated with Fluo-4 (Fluo-4 2 μM, Pluronic F127 0.01% by volume, Molecular Probes in HBSS (Hank's buffered saline solution), Gibco Invitrogen GmbH, Karlsruhe, Germany) at 37° C. for 30 minutes. Subsequently, the plates are washed 3 times with HBSS buffer and, after a further incubation of 15 minutes at room temperature, used for Ca^2+ measurement in FLIPR. The Ca^2+-dependent fluorescence is measured before and after addition of the substances to be studied (wavelength λex=488 nm, λem=540 nm). The quantification is effected by measuring the highest fluorescence intensity (FC, fluorescence counts) over the time.
The FLIPR protocol consists of 2 substance additions. First, the substances to be tested (10 μM) are pipetted onto the cells and the Ca current is compared with the control (capsaicin 10 μM) (% activation based on the Ca^2+ signal after addition of 10 μM capsaicin). After incubation for 5 minutes, 100 nM capsaicin is applied and the current of Ca^2+ is likewise determined.

The target in assay [1] is T2, vanilloid receptor 1 (VR1/TRPV1) of the rat species (Rattus norvegicus, UniProt O35433).
T2 construct: The spinal column is removed from beheaded rats; from tissue; host or cells: primary cells from rat dorsal root ganglia (DRGs)
T2 sequence (O35433 whole entry): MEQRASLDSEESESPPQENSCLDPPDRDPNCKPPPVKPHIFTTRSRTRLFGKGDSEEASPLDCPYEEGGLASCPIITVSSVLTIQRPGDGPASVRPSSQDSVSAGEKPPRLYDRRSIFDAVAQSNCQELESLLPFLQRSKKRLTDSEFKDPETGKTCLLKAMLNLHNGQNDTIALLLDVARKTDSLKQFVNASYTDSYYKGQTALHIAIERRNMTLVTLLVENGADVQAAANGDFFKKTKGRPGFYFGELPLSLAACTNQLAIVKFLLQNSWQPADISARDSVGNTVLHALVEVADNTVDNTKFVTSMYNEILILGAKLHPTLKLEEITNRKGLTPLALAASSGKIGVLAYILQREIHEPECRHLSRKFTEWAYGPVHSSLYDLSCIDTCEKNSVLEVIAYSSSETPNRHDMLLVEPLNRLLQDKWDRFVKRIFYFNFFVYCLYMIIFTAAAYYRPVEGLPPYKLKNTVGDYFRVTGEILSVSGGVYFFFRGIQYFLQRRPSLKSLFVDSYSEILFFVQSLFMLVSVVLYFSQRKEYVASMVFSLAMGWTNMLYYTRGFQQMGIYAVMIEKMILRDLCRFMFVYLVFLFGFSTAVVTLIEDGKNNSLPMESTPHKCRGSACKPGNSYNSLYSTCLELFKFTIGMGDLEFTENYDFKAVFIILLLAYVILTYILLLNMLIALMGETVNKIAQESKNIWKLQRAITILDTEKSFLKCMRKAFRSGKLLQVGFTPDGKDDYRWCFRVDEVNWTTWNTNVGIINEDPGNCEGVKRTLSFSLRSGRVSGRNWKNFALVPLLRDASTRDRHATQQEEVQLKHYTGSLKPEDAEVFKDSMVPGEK
Description: Functional study on vanilloid receptor 1, FLIPR Ca2+ assay in rat dorsal root ganglia cells. In kind it is cell-based. To be noted: for VR1 (rat) (% inhibition compared to 10 μM CP) / VR1 (rat) (% stimulation compared to 10 μM CP) / inhibition at 10 µM / activation at 10 µM: test compound 10 μM; for VR1 (rat) (% inhibition compared to 10 μM CP) / inhibition at 10 µM: 5 min incubation, then 100 nM capsaicin, relative to maximum inhibition with 10 μM capsaicin; for VR1 (rat) (% stimulation compared to 10 μM CP) / activation at 10 µM: Ca2+ signal relative to 10 μM capsaicin (CP); for inhibition at 10 µM: read-out: VR1 (rat) (% inhibition compared to 10 μM CP); for activation at 10 µM: read-out: VR1 (rat) (% stimulation compared to 10 μM CP). On the procedure: The agonistic or antagonistic action of the substances to be studied on the vanilloid receptor 1 (VR1/TRPV1) of the rat species can be determined with the following assay. In this assay, the Ca^2+ current through the receptor channel is quantified with the aid of a Ca^2+-sensitive dye (Fluo-4 type, Molecular Probes Europe BV, Leiden the Netherlands) in a fluorescent imaging plate reader (FLIPR, Molecular Devices, Sunnyvale, USA).
Complete medium: 50 ml HAMS F12 Nutrient Mixture (Gibco Invitrogen GmbH, Karlsruhe, Germany) with 10% by volume of FCS (fetal calf serum, Gibco Invitrogen GmbH, Karlsruhe, Germany, heat-inactivated);
2 mM L-glutamine (Sigma, Munich, Germany);
1% by weight of AA solution (antibiotic/antimycotic solution, PAA, Pasching, Austria) and 25 ng/ml of NGF medium (2.5 S, Gibco Invitrogen GmbH, Karlsruhe, Germany)
Cell culture plate: poly-D-lysine-coated, black 96-hole plates with a clear bottom (96 well black/clear plate, BD Biosciences, Heidelberg, Germany) are additionally coated with laminin (Gibco Invitrogen GmbH, Karlsruhe, Germany) by diluting laminin to a concentration of 100 μg/ml with PBS (Ca—Mg-free PBS, Gibco Invitrogen GmbH, Karlsruhe, Germany). Aliquots having a concentration of 100 μg/ml of laminin are withdrawn and stored at −20° C. The aliquots are diluted with PBS in a ratio of 1:10 to 10 μg/ml of laminin and in each case 50 μl of the solution are pipetted into a well of the cell culture plate. The cell culture plates are incubated at 37° C. for at least two hours, the supernatant solution is removed by suction and the wells are each washed twice with PBS. The coated cell culture plates are stored with supernatant PBS which is not removed until directly before the application of the cells.
The spinal column is removed from beheaded rats and placed directly into cold HBSS buffer (Hank's buffered saline solution, Gibco Invitrogen GmbH, Karlsruhe, Germany), i.e. placed in an ice bath, which has been admixed with 1% by volume of an AA solution (antibiotic/antimycotic solution, PAA, Pasching, Austria). The spinal column is severed longitudinally and removed from the spinal canal together with fasciae. Subsequently, the dorsal root ganglia (DRGs) are removed and in turn stored in cold HBSS buffer admixed with 1% by volume of an AA solution. The DRGs freed completely of blood residues and spinal nerves are in each case transferred to 500 μl of cold type 2 collagenase (PAA, Pasching, Austria) and incubated at 37° C. for 35 minutes. […] After complete incubation, the enzyme solution is cautiously pipetted off and the remaining DRGs are each suspended with 500 μl of complete medium.
The DRGs are each suspended repeatedly, drawn through cannulas No. 1, No. 12 and No. 16 by means of a syringe and transferred to 50 ml Falcon tubes which are made up to 15 ml with complete medium. The contents of each Falcon tube are in each case filtered through a 70 μm Falcon filter insert and centrifuged at 1200 revolutions and room temperature for 10 minutes. The resulting pellet is in each case taken up in 250 μl of complete medium and the cell count is determined.
The number of cells in the suspension is adjusted to 3 times 10^5 per ml and in each case 150 μl of this suspension are added to one well of the cell culture plates coated as described above.
Subsequently, the cells are laden with 2 μM Fluo-4 and 0.01% by volume of Pluronic F127 (Molecular Probes Europe BV, Leiden, the Netherlands) in HBSS buffer (Hank's buffered saline solution, Gibco Invitrogen GmbH, Karlsruhe, Germany) at 37° C. for 30 min, washed 3× with HBSS buffer and, after a further incubation of 15 minutes, used in the FLIPR assay at room temperature for Ca^2+ measurement. The Ca^2+-dependent fluorescence is measured before and after addition of substances (λex=488 nm, λem=540 nm). The quantification is effected by the measurement of the highest fluorescence intensity (FC, fluorescence counts) over the time.

With `Br.CC(C)c1ccc(C=C2SC(N3CCOCC3)=NC2=O)cc1` [Example 179, 5-(4-isopropylbenzylidene)-2-morpholin-4-ylthiazol-4-one hydrobromide], at VR1 (human), the “VR1 (human) (% inhibition compared to 10 μM CP)” value is listed as 30.72% and the “VR1 (human) (% stimulation compared to 10 μM CP)” value was 5.04%. In assay [1], the “VR1 (rat) (% inhibition compared to 10 μM CP)” value turned out to be 38.36% and the “VR1 (rat) (% stimulation compared to 10 μM CP)” value was found to be 41.89%.

Consider `O=C1N=C(N2CCOCC2)SC1=CC(=Cc1ccccc1)c1ccccc1` [Example 50, 5-(2,3-diphenylallylidene)-2-morpholin-4-ylthiazol-4-one], for which the inhibition at 10 µM against VR1 (human) came out at 51.6%; in assay [1], 21.3%. For the same compound, the activation at 10 µM on VR1 (human) was 0%; in assay [1] it was 7.19%.

For `COc1cc(C=C2SC(N3CCN(c4ccccc4)CC3)=NC2=O)ccc1O` [Example 68, 5-(4-hydroxy-3-methoxybenzylidene)-2-(4-phenylpiperazin-1-yl)thiazol-4-one], on VR1 (human), at 10 µM the inhibition was 39.3% and the activation at 10 µM amounted to 54.3%. Besides, in assay [1], the inhibition at 10 µM was determined as 11.6% and the activation at 10 µM is 73.4%.

Regarding `CC(C)(C)c1ccc(C=C2SC(N3CCOCC3)=NC2=O)cc1` [Example 222, 5-(4-tert-butylbenzylidene)-2-morpholin-4-ylthiazol-4-one], on VR1 (human), the “VR1 (human) (% inhibition compared to 10 μM CP)” value amounted to 79.67% and the “VR1 (human) (% stimulation compared to 10 μM CP)” value came out at 41.92%. Besides, in assay [1], the “VR1 (rat) (% inhibition compared to 10 μM CP)” value worked out at 98.64% and the “VR1 (rat) (% stimulation compared to 10 μM CP)” value was determined as 102.46%.

For `Cc1ccc(C=C2SC(N3CCN(Cc4ccccc4)CC3)=NC2=O)cc1` [Example 63, 2-(4-benzylpiperazin-1-yl)-5-(4-methylbenzylidene)thiazol-4-one], on VR1 (human), the inhibition at 10 µM worked out at 52.8% and the activation at 10 µM worked out at 0%. Further, in assay [1], the inhibition at 10 µM amounted to 70.9% and the activation at 10 µM was found to be 0.34%.

For the compound `O=C1N=C(N2CCSCC2)SC1=CC(Cl)=Cc1ccccc1` [Example 85, 5-(2-chloro-3-phenylallylidene)-2-thiomorpholin-4-ylthiazol-4-one], at VR1 (human), the inhibition at 10 µM came to 97.5% and the activation at 10 µM stood at 82.5%. Further, in assay [1], the inhibition at 10 µM turned out to be 77.1% and the activation at 10 µM amounted to 54.9%.

For `Cc1ccc(C=C2SC(N3CCOCC3)=NC2=O)cc1` [Example 218, 5-(4-methylbenzylidene)-2-morpholin-4-ylthiazol-4-one], on VR1 (human), the “VR1 (human) (% inhibition compared to 10 μM CP)” value is 12.88% and the “VR1 (human) (% stimulation compared to 10 μM CP)” value is given as 17.91%. In assay [1], the “VR1 (rat) (% inhibition compared to 10 μM CP)” value is recorded as 78.83% and the “VR1 (rat) (% stimulation compared to 10 μM CP)” value came out at 55.76%.

Take `CC(C)c1ccc(C=C2SC(N3CCSCC3)=NC2=O)cc1` [Example 136, 5-(4-isopropylbenzylidene)-2-thiomorpholin-4-ylthiazol-4-one]: on VR1 (human), testing at 10 µM gave an inhibition of 86.7% and the activation at 10 µM is 114%. For the same compound, in assay [1], the inhibition at 10 µM amounted to 96.9% and the activation at 10 µM turned out to be 84%.

As for `Cc1ccc(C=C2SC(N3CCCC3)=NC2=O)cc1` [Example 215, 5-(4-methylbenzylidene)-2-pyrrolidin-1-ylthiazol-4-one], the inhibition at 10 µM against VR1 (human) came to 49.8%; in assay [1], 4.47%. The activation at 10 µM at VR1 (human) turned out to be 3.64%; in assay [1], 2.14%.

Regarding `Cc1ccc(N2CCN(C3=NC(=O)C(=Cc4ccc(C(C)(C)C)cc4)S3)CC2)nn1` [Example 154, 5-(4-tert-butylbenzylidene)-2-[4-(6-methylpyridazin-3-yl)piperazin-1-yl]thiazol-4-one], on VR1 (human), testing at 10 µM gave an inhibition of 34.2% and the activation at 10 µM was 6.56%. Also, in assay [1], the inhibition at 10 µM is 54.1% and the activation at 10 µM was determined as 3.99%.

As to `CCN(CC)c1ccc(C=C2SC(N3CCOCC3)=NC2=O)cc1` [Example 223, 5-(4-diethylaminobenzylidene)-2-morpholin-4-ylthiazol-4-one], on VR1 (human), the inhibition at 10 µM was 57.7% and the activation at 10 µM worked out at 70.5%. Besides, in assay [1], the inhibition at 10 µM came to 9.3% and the activation at 10 µM was 102%.

Regarding `O=C1N=C(N2CCOCC2)SC1=CC=CSc1ccccc1` [Example 12, 2-morpholin-4-yl-5-(3-phenylsulfanylallylidene)thiazol-4-one], at VR1 (human), the inhibition at 10 µM was determined as 54.3% and the activation at 10 µM worked out at 55.4%. Further, in assay [1], the inhibition at 10 µM was found to be 68.4% and the activation at 10 µM stood at 54%.

Turning to `O=C1N=C(N2CCOCC2)SC1=Cc1ccc(Oc2ccccc2)cc1` [Example 17, 2-morpholin-4-yl-5-(4-phenoxybenzylidene)thiazol-4-one], the inhibition at 10 µM amounted to 19.6% against VR1 (human) and 91.1% in assay [1]. The activation at 10 µM on VR1 (human) is 46%; in assay [1], 120%. In addition, the results for the negative logarithm of the EC50 (pEC50) (at VR1 (human) (unit inferred); in assay [1] (unit inferred)) were 4.75 and 5.20, respectively.

For `O=C1N=C(N2CCSCC2)SC1=Cc1cccc(C(=O)N2CCN(c3nsnc3Cl)CC2)c1` [Example 115, 5-{3-[4-(4-chloro-[1,2,5]thiadiazol-3-yl)piperazine-1-carbonyl]benzylidene}-2-thiomorpholin-4-ylthiazol-4-one], the inhibition at 10 µM worked out at 66.2% on VR1 (human) and 95.8% in assay [1]. In addition, the activation at 10 µM at VR1 (human) stood at 68.2%; in assay [1] it was 128%.
